13 substances from US20230340060A1, “NOVEL MEANS TO PREDICT AND MANIPULATE NMDA RECEPTOR-MEDIATED TOXICITY” (FundaMental Pharma GmbH, priority 2020, published 2023) can be followed below.

One assay concerns HEK293 cells. Kind of assay: Luminescent Cytotoxicity Assay (CytoTox-Glo) after transfection with GluN1 and GluN2A or GluN2B constructs. In kind it is cell-based, human. The note with it: for cell death: HEK293 cells; for susceptibility to NMDA receptor mediated toxicity: subject carrying the variant, based on HEK293 cell death, with GluN1, 48 h after transfection. Here is the method:
HEK293 Cell Culture HEK293 cells were cultured in Dulbecco's Modified Eagle Medium (DMEM, Gibco™, 41965-039) supplement with 10% Fetal Bovine Serum (FBS, Gibco™, 10270), 1% Sodium Pyruvate (Gibco™, 11360070), 1% MEM NEAA (Gibco™, 11140035) and 0.5% Penicillin-Streptomycin (P-S; Sigma, P0781) and Passage15-25 were used for experiments.
To test the cytotoxicity of compounds according to the present invention, HEK293 cells (70-80% confluent) were transfected 24 hours after plating with expression vectors for both GluN1 and GluN2A or GluN2B, respectively (1:1; 2 μg plasmids in total per 6-cm dishes) with Lipofectamine 2000 according to manufacturer's instructions. The relative number of dead cells in the population at the indicated time points after transfection was measured with the CytoTox-Glo™ Cytotoxicity assay (Promega, G9290) according to manufacturer's instruction with minor modification. Briefly, 10% of total medium were mixed with 10 μL AAF-amino luciferin to reach a final volume at 200 μL with water, the dead cell relative luminescence units (DRLU) was measured by GloMax (Promega) in a 96 well white bottom polystyrene microplate (Corning Costar®, 3912). After all the measurements, lysis reagents have been added to the cells and 10% of lysate was used for the total cell relative luminescence units (TRLU) measurement. Cell death was calculated by the following equations: […]
In order to investigate the role of GluN2A and GluN2B in NMDA receptor mediated toxicity, the inventors have built constructs and transfected the plasmids into HEK293 cells.
In a next step, the inventors tried to assess the importance of the isoleucine and other amino acid residues in the inventive sequence motif. The inventors have built constructs containing above-mentioned mutants and transfected the plasmids into HEK293 cells.
In view of the results obtained for the GluN2A and GluN2B mutants of the inventive sequence motif in example 3, the inventors further tested the impact of naturally occurring variations in said sequence motif in the human gene pool on susceptibility towards NMDA receptor mediated toxicity. The inventors have built constructs containing above-mentioned mutants selected from the SNP database from NCBI (for GRIN2A, https://www.ncbi.nlm.nih.gov/projects/SNP/snp_ref.cgi?showRare=on&chooseRs=coding&g o=Go&locusId=2903, and for GRIN2B, https://www.ncbi.nlm.nih.gov/projects/SNP/snp_ref.cgi?showRare=on&chooseRs=coding&g o=Go&locusId=2904) and transfected the plasmids into HEK293 cells.

Assay [1] relates to primary mouse hippocampal neurons. In words: Neuronal death assessment after rAAV-mediated expression of polypeptides. Format: cell-based. The note with it: rAAV infection on DIV3, fixed on DIV17, Hoechst staining, polypeptide fused to HA tag and GPI anchor. Here is the method:
Primary mouse hippocampal were prepared and maintained as known to the skilled person. Briefly, hippocampi from P0 C57Bl/6N mice were dissociated and plated at a density of […] in Growth Medium (GM), consisting of Neurobasal A medium (Gibco™, 10888022), 2% serum free B27™ Supplement (Gibco™, 17504044), 1% rat serum (Biowest, S2150), 0.5 mM L-Glutamine (Sigma, G7513) and 0.5% P-S. Cytosine P-D-arabinofuranoside (AraC; Sigma, C1768; 2.8 μM) was added on DIV3 to prevent the proliferation of glial cells. From DIV8, half of the medium was replaced by GM without Rat serum every 48 h until being used for experiments. […]
Neurons were fixed in 4% paraformaldehyde with 4% sucrose in PBS for 15 min followed with Hoechst staining. […] Cell death is analyzed by Cell Profiler and Cell Analyzer software.
In a next step, the inventors assessed whether the inventive sequence motif on its own is sufficient to induce NMDA receptor mediated toxicity. […] Neurons were fixed on DIV17, stained with Hoechst and cell death was quantified.

Setting [2] is: combined expression with GluN1, 48 h after transfection.

On to “GluN1: wild type rat GluN1 (UniProtKB-P35439), control when expressed alone”, for which, in the assay with HEK293 cells (transfected alone (control), 48 h after transfection), the cell death result is listed as “neither GFP nor GluN1 alone (both serving as controls) could induce cell death”.

For the substance “GluN2A (I867M): GluN2A with naturally occurring substitution I867M”, in the assay with HEK293 cells (setting [2]), the cell death result is given as “also toxic”. Moreover, in the assay with HEK293 cells, the “susceptibility to NMDA receptor mediated toxicity” value (shortened to “susceptibility”) is reported as “increased susceptibility”. Consider “GluN2A (I876N): GluN2A with naturally occurring substitution I876N”, for which the cell death entry in the assay with HEK293 cells (setting [2]) is on record as “also toxic”. Besides, the “susceptibility” value with HEK293 cells is “increased susceptibility”; with HEK293 cells (listed as SEQ ID NO:6), “significantly increased susceptibility”. Regarding “GluN2A (S869R): GluN2A with naturally occurring substitution S869R”, the cell death entry with HEK293 cells (setting [2]) is “also toxic”. Further, the “susceptibility” value with HEK293 cells was “regular susceptibility”.

Regarding “GluN2A-13A3: GluN2A with substitutions I863A, I867A and I871A (SEQ ID NO:3)”, the cell death entry in the assay on HEK293 cells (setting [2]) is “still show some toxic properties”; in the assay with HEK293 cells (combined expression with GluN1, 48 h after transfection, listed as GluN2A SEQ ID NO:3), “at least reduced levels of toxicity”. On to “GluN2A-I2A2: GluN2A with substitutions I867A and I871A (SEQ ID NO:2)”, for which the cell death result in the assay with HEK293 cells (setting [2]) is on record as “still show some toxic properties”; in the assay with HEK293 cells (combined expression with GluN1, 48 h after transfection, listed as GluN2A SEQ ID NO:2) it was “at least reduced levels of toxicity”.

“GluN2A-IAHA: GluN2A with substitutions I867A, I871A and H875A (SEQ ID NO:21)”: in the assay with HEK293 cells (setting [2]), the cell death result is given as “at least reduced levels of toxicity”. Regarding “GluN2A: wild type rat GluN2A (UniProtKB-Q00959) comprising canonical sequence SEQ ID NO:1”, the cell death result with HEK293 cells (setting [2]) is “induced cell death”. For the same substance, the “susceptibility” value in the assay on HEK293 cells is on record as “regular susceptibility”. As for “GluN2B (H873R): GluN2B with naturally occurring substitution H873R”, in the assay with HEK293 cells, the “susceptibility” value is listed as “decreased susceptibility”. As for “GluN2B-12A2: GluN2B with substitutions I868A and I872A (SEQ ID NO:21)”, in the assay on HEK293 cells (setting [2]), the cell death entry was “essentially abrogated any toxic effect”. For “GluN2B-I2A2AH: GluN2B with substitutions I868A, I872A and A876H”, the cell death result with HEK293 cells (setting [2]) is “essentially abrogated any toxic effect”. For “GluN2B: wild type rat GluN2B (UniProtKB-Q00960) comprising canonical sequence SEQ ID NO:7”, the cell death entry with HEK293 cells (setting [2]) is reported as “induced cell death”. Also, in the assay on HEK293 cells, the “susceptibility” value is “regular susceptibility”. Take “SEQ ID NO:10: mutant GluN2A derived polypeptide comprising SEQ ID NO:2, fused to HA tag and GPI anchor (TGVCSDRPGLLFSISRGAYSCAHGVHIEEKKKS; GluN2A core motif mutated with 2 Ile residues mutated to Ala residues plus flanking regions)”: the values for the cell death entry in assay [1] and in assay [1] (listed as SEQ ID NO: 10) were “not able to induce cell death” and “greatly reduces the cell death levels to approx. the levels of untransfected control”, respectively.
